# Measured values as given in PMC9854251 (Biochemistry, 2022).
# Values joined by “and” are separate entries in the source; they are usually repeats but may differ in a detail not shown here. Equal entries are not always repeated.
# Tests used:
# [1] = biological target: T1, hHINT2 WT (Homo sapiens, UniProt Q9BX68); test: Isothermal titration calorimetry, hHINT2 WT; type: binding
# [2] = biological target: T2, hHINT2 R99Q (Homo sapiens, UniProt Q9BX68, R99Q); test: Isothermal titration calorimetry, hHINT2 R99Q; type: binding
# [3] = system: hHINT1 WT; settings: ITC; cited from earlier work
# [4] = biological target: T3, hHINT1 Q62A (Homo sapiens, UniProt P49773, Q62A); test: Steady-state kinetics assay; type: biochemical
# [5] = biological target: T4, hHINT1 Q62R (Homo sapiens, UniProt P49773, Q62R); test: Steady-state kinetics assay; type: biochemical; settings: steady-state 25 °C
# [6] = biological target: T3, hHINT1 Q62A; test: Stopped-flow burst-phase adenylation kinetics, hHINT1 Q62A; type: biochemical
# [7] = biological target: T4, hHINT1 Q62R; test: Stopped-flow burst-phase adenylation kinetics, hHINT1 Q62R; type: biochemical
# [8] = biological target: T5, hHINT2 R99A (Homo sapiens, UniProt Q9BX68, R99A); test: Steady-state kinetics assay; type: biochemical
# [9] = biological target: T2, hHINT2 R99Q; test: Steady-state kinetics assay; type: biochemical; settings: steady-state 25 °C
# [10] = biological target: T1, hHINT2 WT; test: Stopped-flow burst-phase adenylation kinetics, hHINT2 WT; type: biochemical
# [11] = biological target: T5, hHINT2 R99A; test: Stopped-flow burst-phase adenylation kinetics, hHINT2 R99A; type: biochemical
# [12] = biological target: T2, hHINT2 R99Q; test: Stopped-flow burst-phase adenylation kinetics, hHINT2 R99Q; type: biochemical
# [13] = biological target: hHINT1 (Homo sapiens, UniProt P49773); test: Time course simulation; type: biochemical
# [14] = biological target: hHINT2 (Homo sapiens, UniProt Q9BX68); test: Time course simulation; type: biochemical
# [15] = system: hHINT1 WT; settings: steady-state 25 °C, cited from earlier work
# [16] = system: hHINT1 WT; settings: cited from earlier work
# [17] = pH 7.2, read-out: k1, E+TpAd ⇆ E•TpAd
# [18] = pH 7.2, read-out: k−1, E+TpAd ⇆ E•TpAd
# [19] = time course simulation, 4.3 °C, hHINT1
# [20] = time course simulation, 4.3 °C, hHINT1, k4 and k5 can be interchanged without altering the fit
# [21] = time course simulation, 4.3 °C, hHINT2
# [22] = time course simulation, 4.3 °C, hHINT2, k4 and k5 can be interchanged without altering the fit
# T5 sequence (Q9BX68 37-163 R99A limits assumed): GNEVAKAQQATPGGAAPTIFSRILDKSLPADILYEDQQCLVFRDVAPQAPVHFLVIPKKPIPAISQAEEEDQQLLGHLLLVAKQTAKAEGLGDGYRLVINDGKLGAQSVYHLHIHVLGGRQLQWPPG
# T3 sequence (P49773 whole entry Q62A): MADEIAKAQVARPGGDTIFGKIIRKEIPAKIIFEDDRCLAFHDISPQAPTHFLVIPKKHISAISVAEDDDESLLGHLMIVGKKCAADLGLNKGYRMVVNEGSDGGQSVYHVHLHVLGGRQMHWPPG
# T2 sequence (Q9BX68 37-163 R99Q limits assumed): as the sequence (Q9BX68 37-163 R99A limits assumed) above, with A63Q counted along it
# hHINT1, sequence (P49773 whole entry): as the sequence (P49773 whole entry Q62A) above, with A62Q counted along it
# T4 sequence (P49773 whole entry Q62R): as the sequence (P49773 whole entry Q62A) above, with A62R counted along it
# hHINT2, sequence (Q9BX68 37-163 limits assumed): as the sequence (Q9BX68 37-163 R99A limits assumed) above, with A63R counted along it
# T1 sequence (Q9BX68 37-163 limits assumed): as the sequence (Q9BX68 37-163 R99A limits assumed) above, with A63R counted along it
smiles,measurement,setting,value
O=C(CCc1c[nH]c2ccccc12)NS(=O)(=O)OC[C@H]1O[C@@H](n2cnc3c2ncn2ccnc32)[C@H](O)[C@@H]1O [Inhibitor 1],Kd,[1],9.43 ± 0.45 µM
same,ΔH,"[1]; ITC 25 °C, 10 mM Tris, 150 mM NaCl, pH 7.2, hHINT2 WT",-10.54 ± 0.16 kcal/mol
same,-TΔS,"[1]; ITC 25 °C, pH 7.2, hHINT2 WT",3.69 ± 0.17 kcal/mol
same,n (binding stoichiometry),"[1]; ITC 25 °C, pH 7.2, hHINT2 WT",0.80
same,ΔG,"[1]; ITC 25 °C, pH 7.2, hHINT2 WT",-6.84 ± 0.32 kcal/mol
same,Kd,[2],6.94 ± 0.51 µM
same,-TΔS,"[2]; ITC 25 °C, pH 7.2, hHINT2 R99Q",7.68 ± 0.55 kcal/mol
same,n (binding stoichiometry),"[2]; ITC 25 °C, pH 7.2, hHINT2 R99Q",1.1
same,ΔH,"[2]; ITC 25 °C, pH 7.2, hHINT2 R99Q",-14.72 ± 0.10 kcal/mol
same,-TΔS,[3],8.19 ± 0.13 kcal/mol
"Nc1ncnc2c1ncn2[C@@H]1O[C@H](COP(=O)(O)NCCc2c[nH]c3ccccc23)[C@@H](O)[C@H]1O [TpAd, adenosine tryptamine phosphoramidate monoester]","kcat decrease, hHINT1 Q62A vs wild-type",[4]; steady-state,5 fold
same,Km Q62A/WT Ratio,"[4]; steady-state 25 °C, hHINT1",0.12
same,kcat Q62A/WT Ratio,"[4]; steady-state 25 °C, hHINT1",0.21
same,kcat/Km Q62A/WT Ratio,"[4]; steady-state 25 °C, hHINT1",1.87
same,kcat Q62R/WT Ratio,[5],0.67
same,kcat/Km Q62R/WT Ratio,[5],0.73
same,Kd,[6],4.9 ± 0.5 µM
same,k2 Q62A/WT Ratio,"[6]; burst phase 25 °C, hHINT1",0.85
same,k2 (adenylation rate constant),"[6]; burst phase 25 °C, hHINT1 Q62A",172 ± 6 s⁻¹
same,Kd,[7],2.9 ± 0.2 µM
same,KD Q62R/WT Ratio,"[7]; burst phase 25 °C, hHINT1",0.2
same,k2 Q62R/WT Ratio,"[7]; burst phase 25 °C, hHINT1",0.89
same,k2 (adenylation rate constant),"[7]; burst phase 25 °C, hHINT1 Q62R",180 ± 9 s⁻¹
same,"decrease in steady-state turnover, hHINT2 R99A vs wild-type",[8]; steady-state,2 fold
same,Km R99A/WT Ratio,"[8]; steady-state 25 °C, hHINT2",0.75
same,kcat R99A/WT Ratio,"[8]; steady-state 25 °C, hHINT2",0.46
same,kcat/Km R99A/WT Ratio,"[8]; steady-state 25 °C, hHINT2",0.65
same,Km R99Q/WT Ratio,[9],0.92
same,kcat R99Q/WT Ratio,[9],1.04
same,kcat/Km R99Q/WT Ratio,[9],1.18
same,Kd,[10],5.44 ± 0.58 µM
same,k2 (adenylation rate constant),"[10]; burst phase 4 °C, hHINT2 WT",89.7 s⁻¹ and 89.7 ± 5.1 s⁻¹
same,Kd,[11],6 ± 0.47 µM
same,KD R99A/WT Ratio,"[11]; burst phase 4 °C, hHINT2",1.10
same,k2 R99A/WT Ratio,"[11]; burst phase 4 °C, hHINT2",0.96
same,k2 (adenylation rate constant),"[11]; burst phase 4 °C, hHINT2 R99A",86.4 ± 6.1 s⁻¹
same,Kd,[12],5.45 ± 0.6 µM
same,KD R99Q/WT Ratio,"[12]; burst phase 4 °C, hHINT2",1.00
same,k2 R99Q/WT Ratio,"[12]; burst phase 4 °C, hHINT2",1.04
same,k2 (adenylation rate constant),"[12]; burst phase 4 °C, hHINT2 R99Q",93.2 ± 5.0 s⁻¹
same,kon,[13]; [17],> 9.5e+06 M⁻¹ s⁻¹
same,koff,[13]; [18],> 60 s⁻¹
same,"k2, E•TpAd ⇆ E-NMP•Tp",[13]; [19],56.5 ± 2.5 s⁻¹
same,"k3, E-NMP•Tp ⇆ E-NMP + Tp",[13]; [19],>2000 s⁻¹
same,"k−2, E•TpAd ⇆ E-NMP•Tp",[13]; [19],0
same,"k−3, E-NMP•Tp ⇆ E-NMP + Tp",[13]; [19],0
same,"k−4, E-NMP + H20 ⇆ E’-NMP",[13]; [19],0
same,"k−5, E’-NMP ⇆ E + NMP",[13]; [19],0
same,"k4, E-NMP + H20 ⇆ E’-NMP",[13]; [20],0.41 ± 0.03 s⁻¹
same,"k5, E’-NMP ⇆ E + NMP",[13]; [20],>100 s⁻¹
same,fluorescence of bound TpAd relative to unquenched tryptamine,"[14]; TpAd bound to hHINT2, constraint giving excellent simulations",~ 75%
same,kon,[14]; [17],> 5e+07 M⁻¹ s⁻¹
same,koff,[14]; [18],> 60 s⁻¹
same,"k2, E•TpAd ⇆ E-NMP•Tp",[14]; [21],60.8 ± 2.5 s⁻¹
same,"k3, E-NMP•Tp ⇆ E-NMP + Tp",[14]; [21],>1640 s⁻¹
same,"k−2, E•TpAd ⇆ E-NMP•Tp",[14]; [21],0
same,"k−3, E-NMP•Tp ⇆ E-NMP + Tp",[14]; [21],0
same,"k−4, E-NMP + H20 ⇆ E’-NMP",[14]; [21],0
same,"k−5, E’-NMP ⇆ E + NMP",[14]; [21],0
same,"k4, E-NMP + H20 ⇆ E’-NMP",[14]; [22],1.34 s^−1 ± 0.14 s^−1
same,"k5, E’-NMP ⇆ E + NMP",[14]; [22],>34 s⁻¹
same,Km,[15],0.13 ± 0.02 µM
same,kcat,[15]; substrate turnover,2.1 ± 0.1 s⁻¹
same,k2 (adenylation rate constant),[16]; burst phase 25 °C,203 s⁻¹ and 203 ± 13 s⁻¹
same,Kd,"[16]; read-out: KD (substrate binding), burst phase 25 °C",13 ± 2 µM
